Test results from patent US8232308B2, “Methods for treating a disease in which Rho kinase is involved” (UBE Industries, Ltd., priority 2003, dated 2012).
Structures can show the parent of a compound that is named as a salt.

Biological target: T1, activated ROCK II (Rattus norvegicus, UniProt Q62868)
T1 construct: purchased Upstate Biotechnology 14-338
T1 sequence (Q62868 11-550 limits assumed): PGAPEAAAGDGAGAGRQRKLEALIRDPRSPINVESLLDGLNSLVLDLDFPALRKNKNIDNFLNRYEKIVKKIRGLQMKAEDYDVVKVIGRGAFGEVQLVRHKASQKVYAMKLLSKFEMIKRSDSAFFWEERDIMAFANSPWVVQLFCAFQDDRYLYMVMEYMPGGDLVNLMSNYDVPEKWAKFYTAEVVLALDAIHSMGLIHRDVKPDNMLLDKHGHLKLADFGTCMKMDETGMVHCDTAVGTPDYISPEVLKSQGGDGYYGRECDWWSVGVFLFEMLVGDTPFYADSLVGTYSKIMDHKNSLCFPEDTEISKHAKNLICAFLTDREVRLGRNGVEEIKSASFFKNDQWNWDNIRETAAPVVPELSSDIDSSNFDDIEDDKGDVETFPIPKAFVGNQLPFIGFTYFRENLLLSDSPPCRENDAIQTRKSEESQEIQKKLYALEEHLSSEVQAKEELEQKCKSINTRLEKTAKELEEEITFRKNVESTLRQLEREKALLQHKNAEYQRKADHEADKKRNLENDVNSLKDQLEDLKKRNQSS
Experiment: Test for Evaluation of Inhibiting Activity to Rho Kinase
Assay type: biochemical
Details: S6 Kinase Substrate Peptide, [γ-32P]ATP, 30° C. for 15 minutes, Ki=IC50/(1+S/Km)
Method: In order to find the utility of the present invention compound, a Rho kinase inhibiting activity of the present invention compound was evaluated. The details thereof will be illustrated under the item of “Pharmacological Test (Test for Evaluation of Rho Kinase Inhibiting Activity)” in the Examples which will be mentioned later. The evaluation of the Rho kinase inhibiting activity of the present invention compound was carried out in accordance with the methods mentioned in J. Biol. Chem., 274, 32418 (1999) by Kaibuchi, et al. and mentioned in the instruction manual for use attached to the commercially available activated ROCK II [Upstate Biotechnology, Catalog No. 14-338 (5 units/50 μl)].
A. Test for Evaluation of Inhibiting Activity to Rho Kinase
In order to test the usefulness of the compounds of the present invention as a Rho kinase inhibitor, inhibiting activities of the compounds of the present invention to Rho kinase were evaluated and investigated in accordance with the methods of Kaibuchi, et al. mentioned in J. Biol. Chem., 274, 32418, 1999 and also with the methods mentioned in the instruction manual for use attached to commercially available activated ROCK II [Upstate Biotechnology, Catalog No. 14-338, (5 unite/50 μl)]. With regard to the test compounds, the compounds 5-1 to 5-73 (except the compounds 5-2, 5-9, 5-18, 5-37 and 5-38) were used.
A buffer was prepared so as to make tris(hydroxymethyl)aminomethane (Tris) (pH 7.5), 50 mM, ethyleneglycol bis(β-aminoethyl ether)-N,N,N′,N′-tetraacetic acid (EGTA), 2 mM, ethylenediaminetetraacetic acid (EDTA), 1 mM, magnesium chloride (MgCl2) 5 mM, β-glycerol phosphate, 5 mM, and dithiothreitol (DTT), 2 mM, by mixing them.
A mixed liquid of a 10 mM ATP solution with a commercially available [γ-^32P]ATP solution [NEN, Code No. NEG-002A] was diluted with the buffer to prepare a 300 μM ATP [γ-^32P]ATP solution.
A Commercially Available Activated ROCK II [Upstate Biotechnology, Catalog No. 14-338, (5 Units/50 μl)] was diluted to a concentration of 1/100 with the buffer to prepare an activated ROCK II solution.
A S6 Kinase Substrate Peptide [Upstate Biotechnology, Catalog No. 12-124,] (2 mg) was dissolved in distilled water to prepare a 1 mM substrate solution.
A test compound was dissolved in 10% aqueous dimethyl sulfoxide solution.
1) The test compound solution is placed in a microtube.
2) The 300 μM ATP [γ-^32P]ATP solution is added to the microtube followed by cooling to 4° C.
3) After that, a permanently activated ROCK II solution, 1 mM substrate solution and buffer are added to each microtube in that order, and the whole is mixed and cooled again at 4° C.
4) The microtube is placed in an incubator (30° C.) and the mixture is subjected to reaction for 15 minutes.
5) After cooling to 4° C., a 250 mM phosphoric acid solution (5 μl) is added to each microtube to stop the reaction.
6) The reaction solution (30 μl) is taken out from each microtube and spotted on a filter paper (Whatman P81) so that the reaction product (phosphorylated substrate) is adsorbed to the filter paper.
7) The filter paper is transferred to a beaker in which a 75 mM phosphoric acid solution is placed and shaken for 5 minutes so that unreacted [γ-^32P]AfP is washed out. The washing operation as such is carried out four times.
8) After that, the filter paper is dipped in ethanol to dehydrate and energy amount (radioactivity) of the reaction product adsorbed to the filter paper is measured with a liquid scintillation counter.
The IC50 value was calculated by an XL-fit (IDBS).
The Ki value is calculated by the following formula. S is an ATP concentration contained in the reaction solution while Km is a Michaelis-Menten constant. Ki=IC50/(1+S/Km)
`CCOc1c(-c2ccc(C(C)(C)N)cn2)ccc2[nH]ncc12` [Compound 5-47, 5-[5-(1-Amino-1-methylethyl)pyridin-2-yl]-4-ethoxy-1H-indazole trihydrochloride] gave a Ki of 0.045 µM.

System: not given
Experiment: not given
Details: not given
With `CC(C)Oc1c(-c2ccc(C(C)(C)N)cn2)ccc2[nH]ncc12` (as salt: hydrochloride) [Compound 5-50, 5-[5-(1-Amino-1-methylethyl)pyridin-2-yl]-4-isopropoxy-1H-indazole trihydrochloride] the melting point was 211 to 213 °C (dec.). In the case of `CCC(N)(CC)c1ccc(-c2ccc3[nH]ncc3c2OC)nc1` (as salt: hydrochloride) [Compound 5-51, 5-[5-(1-Amino-1-ethylpropyl)pyridin-2-yl]-4-methoxy-1H-indazole trihydrochloride], the melting point is reported as 204 to 206 °C (dec.). With `CCOc1c(-c2ccc(C(N)(CC)CC)cn2)ccc2[nH]ncc12` (as salt: hydrochloride) [Compound 5-60, 5-[5-(1-Amino-1-ethylpropyl)pyridin-2-yl]-4-ethoxy-1H-indazole trihydrochloride] the melting point was 200 to 202 °C (dec.). For `CN(C)c1c(-c2ccc(C3(N)CCCC3)cc2)ccc2[nH]ncc12` (as salt: hydrochloride) [Compound 5-24, 5-[4-(1-Aminocyclopentyl)phenyl]-4-dimethylamino-1H-indazole trihydrochloride], the melting point was 175 to 178 °C (dec.). For `COc1c(-c2ccc(C3(N)CCCC3)cn2)ccc2[nH]ncc12` (as salt: hydrochloride) [Compound 5-46, 5-[5-(1-Aminocyclopentyl)pyridin-2-yl]-4-methoxy-1H-indazole trihydrochloride], the melting point was 195 to 203 °C (dec.). In the case of `CC(C)(N)c1ccc(-c2ccc3[nH]ncc3c2)nc1` (as salt: hydrochloride) [Compound 5-3, 5-[5-(1-Amino-1-methylethyl)pyridin-2-yl]-1H-indazole trihydrochloride], the melting point is reported as 271 to 273 °C (dec.). In the case of `CC(C)(N)c1ccc(-c2ccc3[nH]ncc3c2CCO)cc1` (as salt: hydrochloride) [Compound 5-32, 5-[4-(1-Amino-1-methylethyl)phenyl]-4-(2-hydroxy-ethyl)-1H-indazole dihydrochloride], the melting point is reported as 202 to 203 °C (dec.). In the case of `C=CCOc1c(-c2ccc(C(C)(C)N)cc2)ccc2[nH]ncc12` (as salt: hydrochloride) [Compound 5-57, 4-Allyloxy-5-[4-(1-amino-1-methylethyl)phenyl]-1H-indazole dihydrochloride], the melting point is reported as 205 to 207 °C (dec.). For `CC(C)(N)c1ccc(-c2ccc3[nH]ncc3c2[N+](=O)[O-])cc1` (as salt: hydrochloride) [Compound 5-4, 5-[4-(1-Amino-1-methylethyl)phenyl]-4-nitro-1H-indazole monohydrochloride], the melting point was 255 to 261 °C (dec.). For `CC(C)(N)c1ccc(-c2ccc3[nH]ncc3c2OC(F)F)cc1` (as salt: hydrochloride) [Compound 5-53, 5-[4-(1-Amino-1-methylethyl)phenyl]-4-difluoro-methoxy-1H-indazole dihydrochloride], the melting point was 227 to 230 °C (dec.). With `CCc1c(-c2ccc(C(C)(C)N)cn2)ccc2[nH]ncc12` (as salt: hydrochloride) [Compound 5-28, 5-[5-(1-Amino-1-methylethyl)pyridin-2-yl]-4-ethyl-1H-indazole trihydrochloride] the melting point was 247 to 255 °C (dec.). With `CC(C)(N)c1ccc(-c2ccc3[nH]ncc3c2N)cc1` (as salt: hydrochloride) [Compound 5-5, 4-Amino-5-[4-(1-amino-1-methylethyl)phenyl]-1H-indazole trihydrochloride] the melting point was 228 to 235 °C (dec.). In the case of `CC(C)(N)c1ccc(-c2ccc3[nH]ncc3c2N2CCOCC2)cc1` (as salt: hydrochloride) [Compound 5-43, 5-[4-(1-Amino-1-methylethyl)phenyl]-4-(morpholin-4-yl)-1H-indazole trihydrochloride], the melting point is reported as 268 to 272 °C (dec.). In the case of `CN(C)c1c(-c2ccc(C(C)(C)N)cc2)ccc2[nH]ncc12` (as salt: hydrochloride) [Compound 5-16, 5-[4-(1-Amino-1-methylethyl)phenyl]-4-dimethylamino-1H-indazole trihydrochloride], the melting point is reported as 219 to 224 °C (dec.). Work on `CC(=O)Nc1c(-c2ccc(C(C)(C)N)cc2)ccc2[nH]ncc12` (as salt: hydrochloride) [Compound 5-18, 4-(N-Acetylamino)-5-[4-(1-amino-1-methylethyl)-phenyl]-1H-indazole dihydrochloride] yielded a melting point of 218 to 221 °C. With `CC(C)(N)c1ccc(-c2ccc3[nH]ncc3c2-c2ccno2)cc1` (as salt: hydrochloride) [Compound 5-68, 5-[4-(1-Amino-1-methylethyl)phenyl]-4-(isoxazol-5-yl)-1H-indazole dihydrochloride] the melting point was 256 to 258 °C (dec.). `CC(C)(N)c1ccc(-c2ccc3[nH]ncc3c2OC(F)F)nc1` (as salt: hydrochloride) [Compound 5-59, 5-[5-(1-Amino-1-methylethyl)pyridin-2-yl]-4-difluoromethoxy-1H-indazole trihydrochloride] showed a melting point of 170 to 173 °C. In the case of `COc1c(-c2ccc(C(C)(C)N)cn2)ccc2[nH]ncc12` (as salt: hydrochloride) [Compound 5-45, 5-[5-(1-Amino-1-methylethyl)pyridin-2-yl]-4-methoxy-1H-indazole trihydrochloride], the melting point is reported as 195 to 201 °C (dec.). With `CN(C)/C=C/C(=O)c1c(-c2ccc(C(C)(C)NC(=O)OC(C)(C)C)cc2)ccc2nn(C3CCCCO3)cc12` (centres unmarked) [Compound 29, 5-[4-(1-tert-butoxycarbonylamino-1-methylethyl)phenyl]-4-(3-dimethylaminoacryloyl)-2-(tetra-hydropyran-2-yl)-2H-indazole] the melting point was 191 to 194 °C. In the case of `C=Cc1c(-c2ccc(C(C)(C)N)cn2)ccc2[nH]ncc12` (as salt: hydrochloride) [Compound 5-30, 5-[5-(1-Amino-1-methylethyl)pyridin-2-yl]-4-vinyl-1H-indazole trihydrochloride], the melting point is reported as 162 to 166 °C (dec.). In the case of `CC(C)(N)c1ccc(-c2ccc3[nH]ncc3c2O)cc1` (as salt: hydrochloride) [Compound 5-48, 5-[4-(1-Amino-1-methylethyl)phenyl]-4-hydroxy-1H-indazole dihydrochloride], the melting point is reported as 194 to 198 °C (dec.). In the case of `CC(C)(N)c1ccc(-c2ccc3[nH]ncc3c2-c2ccccn2)cc1` (as salt: hydrochloride) [Compound 5-63, 5-[4-(1-Amino-1-methylethyl)phenyl]-4-(pyridin-2-yl)-1H-indazole trihydrochloride], the melting point is reported as 210 to 214 °C (dec.). With `CC(C)(N)c1ccc(-c2ccc3[nH]ncc3c2NCc2ccccc2)cc1` (as salt: hydrochloride) [Compound 5-6, 5-[4-(1-Amino-1-methylethyl)phenyl]-4-benzylamino-1H-indazole dihydrochloride] the melting point was 185 to 192 °C (dec.). `Nc1c(-c2ccc(C3(N)CCCC3)cc2)ccc2[nH]ncc12` (as salt: hydrochloride) [Compound 5-21, 4-Amino-5-[4-(1-aminocyclopentyl)phenyl]-1H-indazole dihydrochloride] gave a melting point of 234 to 237 °C. For `COC(=O)c1n[nH]c2ccc(-c3ccc(C(C)(C)N)cc3)cc12` (as salt: hydrochloride) [Compound 5-8, 5-[4-(1-Amino-1-methylethyl)phenyl]-3-methoxy-carbonyl-1H-indazole dihydrochloride], the melting point was 264 to 267 °C (dec.).
